Test results from US20070042949A1, “Pharmaceutical compositions comprising an epitope of platelet gpiiia protein” (priority 2003, published 2007).

System: Peripheral blood mononuclear cells (PBMC) from HPA-1b1b women
Test: T-cell proliferation assay (3H-thymidine incorporation) of PBMC stimulated with HPA-1a/1b 15-mer peptides, HPA-1b1b women
Format: cell-based, human
Settings: peptide 20 μg/mL; for immunodominance in stimulating specific T-cell responses in vitro: HPA-1a alloimmunised HPA-1b1b women; for strength of PBMC proliferative response (in words): HPA-1b1b women
Protocol: The cells were stimulated with a panel of 15-mer peptides corresponding to the sequences of the HPA-1a and 1b alloantigens containing Leu33 and Pro33 respectively (see FIG. 1). Two categories of control donors were utilised; 1 HPA-1b1b unimmunised donor and 11 HPA-1a randomly selected female donors. Testing of both patients and controls was carried out in cell culture conditions designed to favour proliferation by previously activated T-cells, rather than primary responses.
The human platelet membrane GPIIIa amino acid sequence reported by Frachet et al Mol. Biol. Rep. 1990, vol 14, 27-33 (genebank accession no: M35999) was used as the basis for production of the HPA-1a and HPA-1b GPIIIa synthetic peptides. Two panels of 15-mer peptides were synthesised corresponding to the sequences of the HPA-1 polymorphic region, with either the Leu-33 or Pro-33 at each possible position (see FIG. 1). One set of the 15-mer peptides contained the leucine polymorphism and the other set of 15 contained the proline polymorphism. To ensure purity each panel was synthesized by f-moc chemistry. The peptides were reconstituted to a concentration of 2.0 mg/ml and used for stimulation of PBMC at 20 μg/mL in culture.
Mononuclear cells were recovered from samples of peripheral blood of all patients and control donors by density gradient centrifugation technique (Lymphoprep; Nycomed, Denmark) according to the manufacturer's instructions. The cells were then manually counted by hemocytometer.
Peripheral blood mononuclear cells were cultured at a concentration of 1.25×10^6 cells per mL in Alpha Modification of Eagle's Medium (Sigma Diagnostic, St. Louis, Mo., USA.) supplemented with 4 mmol/l L-glutamine (Gibco, Paisley, UK), 100 μg/ml streptomycin sulphate (Sigma Diagnostic, St. Louis, Mo., USA), 100 u/mL sodium benzylpenicillin G (Sigma Diagnostic, St. Louis, Mo., USA), 20 mmol/L HEPES, PH 7.2 (Sigma Diagnostic, St. Louis, Mo., USA) and 5% autologous serum or AB serum. Twelve microlitres of synthetic HPA-1a/1b peptides and control antigens (PPD, KLH and ConA) were each added to appropriate wells of the microtitre plates before the cell culture suspension was layered. The culture plates were incubated at 37° C. in a humidified atmosphere of 95% air and 5% CO2 for 5 days. T-cell proliferation in cultures was estimated from the incorporation of ^3H-thymidine in triplicate 100 μL samples withdrawn from the plates 5 days after stimulation. T-cell proliferation results were presented either as the mean counts per minute (CPM)±SD of the triplicate samples or as a stimulation index (SI) expressing the ratio of mean CPM in stimulated versus unstimulated control cultures. A SI >3 was interpreted as representing a positive response.

Substance	immunodominance in stimulating specific T-cell responses in vitro	percentage of HPA-1a alloimmunised HPA-1b1b women in whom the peptide elicited proliferation of T-cells (5 days, SI >3 = positive response, 14 alloimmunised women)	strength of PBMC proliferative response (in words) (5 days)
SEQ ID No:1: 15-mer synthetic HPA-1a (Leu-33) GPIIIa peptide, polymorphism in the C-terminal part of the peptide (VSPMCAWCSDEALPL; listed as Homo sapiens)	immunodominant	approximately 50%	–
SEQ ID No:2: 15-mer synthetic HPA-1a (Leu-33) GPIIIa peptide, polymorphism in the C-terminal part of the peptide (SPMCAWCSDEALPLG; listed as Homo sapiens)	immunodominant	–	–
SEQ ID No:3: 15-mer synthetic HPA-1a (Leu-33) GPIIIa peptide, polymorphism in the C-terminal part of the peptide (PMCAWCSDEALPLGS; listed as Homo sapiens)	immunodominant	–	–
SEQ ID No:4: 15-mer synthetic HPA-1a (Leu-33) GPIIIa peptide, polymorphism in the C-terminal part of the peptide (MCAWCSDEALPLGSP; listed as Homo sapiens)	immunodominant	–	–
SEQ ID No:5: 15-mer synthetic HPA-1a (Leu-33) GPIIIa peptide, polymorphism in the C-terminal part of the peptide (CAWCSDEALPLGSPR; listed as Homo sapiens)	immunodominant	–	–
SEQ ID No:6: 15-mer synthetic HPA-1a (Leu-33) GPIIIa peptide, polymorphism in the C-terminal part of the peptide (AWCSDEALPLGSPRC; listed as Homo sapiens)	immunodominant	–	strong responses in particular individuals
SEQ ID No:7: 15-mer synthetic HPA-1a (Leu-33) GPIIIa peptide, polymorphism in the C-terminal part of the peptide (WCSDEALPLGSPRCD; listed as Homo sapiens)	immunodominant	–	strong responses in particular individuals
